{"source": "patent US20160271251A1", "about": "“RADIOLUMINESCENT COMPOUND FOR RADIOTHERAPY AND DEEP PHOTODYNAMIC THERAPY AND DEVICE FOR DEEP PHOTODYNAMIC THERAPY” (SYNCHROTRON SOLEIL, priority 2013, published 2016)", "key": {"[1]": {"assay": "UV-visible absorption spectrum of photosensitiser", "type": "physicochemical", "source_text": "(§1) For the acquisition of these spectra, the two molecules are mixed in the same aqueous solvent. The energy of the X-ray radiation is generally comprised between 1 and 20 keV and selected so as to be higher than an absorption threshold of the radioluminescent molecule, so that the radioluminescent molecule absorbs the X-ray radiation of energy and emits a luminescence radiation in the visible domain."}, "[2]": {"assay": "X-ray-excited luminescence (radioluminescence) spectrum", "type": "physicochemical", "settings": "for emission band of X-ray-excited luminescence: c=177 mM", "source_text": "as §1"}}, "data": [{"molecule": "Oc1cccc(-c2c3nc(c(-c4cccc(O)c4)c4ccc([nH]4)c(-c4cccc(O)c4)c4nc(c(-c5cccc(O)c5)c5ccc2[nH]5)CC4)C=C3)c1", "note": "[mTHPC, meta-tetrahydroxyphenylchlorine]", "values": [{"measurement": "most intense absorption band", "setting": "[1]; PEG:EtOH:H2O 3:2:5 v/v, c=0.49 μM", "value": "around 400 nm"}]}, {"molecule": "[Al].c1ccc2c(c1)-c1nc-2nc2[nH]c(nc3nc(nc4[nH]c(n1)c1ccccc41)-c1ccccc1-3)c1ccccc21", "note": "[Al(III)Phthalocyanine]", "values": [{"measurement": "absorption band superimposed with CeCl3 emission", "setting": "[1]; aqueous medium, c=4 μM", "value": "around 350 nm"}]}, {"molecule": "[Cl][Eu]([Cl])[Cl]", "note": "[EuCl3, europium chloride]", "values": [{"measurement": "most intense of the three peaks observed", "setting": "[2]; DMSO medium (FIG. 7)", "value": 700, "unit": "nm"}, {"measurement": "most intense of the three peaks observed", "setting": "[2]; aqueous medium (FIG. 2)", "value": 600, "unit": "nm"}]}, {"molecule": "[Cl][Ce]([Cl])[Cl]", "note": "[CeCl3, cerium chloride]", "values": [{"measurement": "emission band of X-ray-excited luminescence", "setting": "[2]; PBS pH=7.4", "value": "300-400 nm"}, {"measurement": "emission band of X-ray-excited luminescence", "setting": "[2]; PEG:EtOH:H2O 3:2:5 v/v, X-ray 1-20 keV", "value": "300-400 nm"}]}, {"molecule": "[Cl][Gd]([Cl])[Cl]", "note": "[GdCl3, gadolinium chloride]", "values": [{"measurement": "emission bands/peak of X-ray-excited luminescence", "setting": "[2]; DMSO medium, EuCl3 c=96 mM, GdCl3 c=199 mM", "value": "around 320 nm"}]}, {"molecule": "chlorine e6", "values": [{"measurement": "most intense absorption band", "setting": "[1]; PBS pH=7.4, c=0.8 μM", "value": "around 400 nm"}]}]}
